Results: patent US20040037806A1, “Aldosterone blocker therapy to prevent or treat inflammation-related disorders” (Pharmacia Corporation, priority 2002, published 2004)
Where “and” joins values, the source holds several entries; their conditions need not be identical. Equal entries are not always repeated. Entries after “also recorded” stand apart in the source; their conditions may differ.

Columns and labels:
Type in all cases: in vivo, rat
COX-2 = experiment: Assay B: COX-2 mRNA by quantitative RT-PCR (Taqman)
Procedure: Assay B: In Vivo Aldosterone Infusion Model Determination of osteopontin and COX-2 was performed by quantitative RT-PCR (Taqman). Osteopontin was also identified in the heart by immunohistochemistry.

[1] = test system: Transforming growth factor beta 1 (TGFβ1); experiment: Assay C: TGFβ1 mRNA, TaqMan; conditions: aldosterone+salt, 7, 14, 30 days
Procedure: The procedure of Assay B was expanded upon in a further study. […] Myocardial tissue from animals in each treatment group was examined after 7, 14, or 30 days of treatment.
Potassium chloride supplementation was added to the saline solution in order to prevent the potential hypokalemia associated with aldosterone excess.
Treatment At the time of the surgery, an Alzet 2002 osmotic minipump (Alza Corp., Palo Alto, Calif.) containing either vehicle (9% ethanol/87% propylene glycol/4% dH2O) or 1.0 mg/mL d-aldosterone (Sigma Chemical, St. Louis, Mo.) was inserted subcutaneously at the nape of the neck. Aldosterone was administered at a dose of 0.75 µg/hour. […]
The fluorogenic 5′-nuclease assay (TaqMan PCR) using Applied Biosystems' 7700 Sequence Detection System (Applied Biosystems, Foster City, Calif.) allowed for real time detection/quantitation of a specific gene by monitoring the increase in fluorescence of a gene-specific, dye-labeled oligonucleotide probe. […] When the probe was annealed to the target gene, fluorescence of 6FAM was prevented by the close proximity of TAMRA. The exonuclease activity of Taq polymerase released the dyes from the oligonucleotide probe by displacing the probe from the target sequence resulting in fluorescence excitation in direct proportion to the amount of target message present. […]

osteopontin = experiment: Assay B: serum osteopontin levels at 28 days; conditions: NaCl 1% drinking rats with aldosterone and eplerenone
[2] = Histopathological scores for renal injury in angiotensin II infused, captopril treated stroke prone spontaneously hypertensive rats; conditions: captopril treated stroke prone spontaneously hypertensive rats (FIG. 36)
[3] = Assay C: myocardial hydroxyproline colorimetric assay; conditions: 7 days of treatment; myocardium; aldosterone + salt alone or with eplerenone 100 mg/kg/day; individual rats and group Mean
Procedure: The procedure of Assay B was expanded upon in a further study. […] Myocardial tissue from animals in each treatment group was examined after 7, 14, or 30 days of treatment. […] Lesions were preceded by the expression and progressive upregulation of proinflammatory molecules. […] Prior to surgery the animals were individually weighed and placed in one of the following groups: […] Potassium chloride supplementation was added to the saline solution in order to prevent the potential hypokalemia associated with aldosterone excess. Treatment At the time of the surgery, an Alzet 2002 osmotic minipump (Alza Corp., Palo Alto, Calif.) containing either vehicle (9% ethanol/87% propylene glycol/4% dH2O) or 1.0 mg/mL d-aldosterone (Sigma Chemical, St. Louis, Mo.) was inserted subcutaneously at the nape of the neck. Aldosterone was administered at a dose of 0.75 µg/hour. […] Animals were sacrificed from each group (n=8-13) after 7, 14, or 30 days of treatment. Myocardial hydroxyproline concentration was measured by a colorimetric assay that quantifies the reaction between oxidized hydroxyproline, and p-dimethylaminobenzaldehyde as described previously (4). […] Samples were incubated at 60° C. for 30 min, cooled to room temperature, and absorbance was monitored at 558 nm. Hydroxyproline content was quantitated from a freshly prepared standard curve of trans-4-hydroxy-L-proline (Sigma, St. Louis, Mo.). […]

[4] = Survival and cerebral injury in stroke-prone spontaneously hypertensive rats
[5] = Assay A: angiotensin II infusion model, urinary Na+/K+ ratio (natriuresis index); conditions: Wistar rats, 1% NaCl, angiotensin II 25 ng/min sc; eplerenone 100 mpk
Description: Electrolyte excretion. The ratio between daily urinary Na^+ excretion and urinary K^+ excretion (U Na^+/K^+ ratio) was used as an index for natriuresis. Urinary Na^+/K^+ ratio was similar in all groups before the start of the treatments, and increased similarly in all animals upon initiation of the high salt diet.

[6] = Urinary protein excretion in angiotensin II infused, captopril treated stroke prone spontaneously hypertensive rats; conditions: captopril treated stroke prone spontaneously hypertensive rats (FIG. 35)

| Compound | Increase of COX-2 mRNA expression vs control (COX-2; aldosterone/salt+vehicle treatment) | COX-2 relative mRNA expression in the heart (COX-2; aldosterone/salt-treated rats, 4 weeks, vehicle or eplerenone 100 mpk p.o, control 1.2±0.12) | TGF-β mRNA levels [1] | Circulating (serum) osteopontin levels (osteopontin) | Histopathological scores for renal injury [2] | Hydroxyproline [3] | Survival ([4]; stroke-prone spontaneously hypertensive rats (FIG. 37)) | Cerebral injury ([4]; stroke-prone spontaneously hypertensive rats (FIGS. 37, 38)) | Urinary Na+/K+ ratio (index for natriuresis) [5] | Urinary protein excretion [6] |
| --- | --- | --- | --- | --- | --- | --- | --- | --- | --- | --- |
| C[C@]12CCC(=O)C=C1CC[C@@H]1[C@@H]2[C@@H](O)C[C@]2(C=O)[C@@H](C(=O)CO)CC[C@@H]12 [aldosterone] | 3 fold | 3.7±0.46 | not upregulated at any of the time points examined | – | – | – | – | – | – | – |
| COC(=O)[C@@H]1CC2=CC(=O)CC[C@]2(C)[C@@]23O[C@@H]2C[C@@]2(C)[C@@H](CC[C@@]24CCC(=O)O4)[C@H]13 [eplerenone] | – | – | – | marked decrease in circulating osteopontin levels | reduction in histopathological scores for renal injury | 4.08 µg/mg and 2.41 µg/mg | increased survival | reduced cerebral injury; also recorded: decrease in cerebral injury | did not produce a significant diuretic or natriuretic effect | inhibition of increased urinary protein excretion |
